Data taken from patent US11098010B2 (priority 2017, dated 2021).
Where a name gives a salt, the structure may show the parent alone. Read-outs that look alike come from different tables or passages of the source.

System: HBV rcDNA in HepDE19 cells
Assay: HepDE19 assay with bDNA quantitation of HBV rcDNA
Type: cell-based, hepatitis B virus (HBV)
[1] = Hepatitis B virus, HepDE19, 168 h, read-out: DE-19 bDNA EC50 (μM), HepDE19 cells, inhibition of rcDNA formation, 7 day incubation, top concentration 25 μM
[2] = read-out: DE-19 bDNA EC50, HepDE19 cells, inhibition of rcDNA formation, 7 day incubation, top concentration 25 μM
[3] = Hepatitis B virus, HepDE19, 168 h, HepDE19 cells, inhibition of rcDNA formation, 7 day incubation, top concentration 25 μM, read-out: DE-19 bDNA EC50
[4] = HepDE19 cells, inhibition of rcDNA formation, 7 day incubation, top concentration 25 μM, read-out: DE-19 bDNA EC50

SMILES: O=C(N[C@H]1CCc2c(C(=O)Nc3ccc(F)c(Cl)c3)ccc(F)c21)OCCc1cn[nH]c1 [Compound 110, O-2-(1H-Pyrazol-4-yl)ethyl, N—(S)-(4-((3-chloro-4-fluorophenyl)carbamoyl)-7-fluoro-2,3-dihydro-1H-inden-1-yl) carbamate]
- EC50 [1]: 0.2 µM

SMILES: CNC(=O)NC1COc2c(C(=O)Nc3ccc(F)c(F)c3)cccc21 (single isomer, unassigned) [Compound 7, N-(3,4-difluorophenyl)-3-(3-methylureido)-2,3-dihydrobenzofuran-7-carboxamide]
- EC50 [2]: 1.9 µM

SMILES: COc1cnc(N[C@H]2CCc3c(C(=O)Nc4ccc(F)c(Cl)c4)ccc(F)c32)nc1 [Compound 49, (S)—N-(3-Chloro-4-fluorophenyl)-7-fluoro-1-((5-methoxypyrimidin-2-yl)amino)-2,3-dihydro-1H-indene-4-carboxamide]
- EC50 [1]: 0.17 µM

SMILES: Cc1cccc(COC(=O)N[C@H]2CCc3c(C(=O)Nc4ccc(F)c(Cl)c4)ccc(F)c32)n1 [Compound 73, O-(6-Methylpyridin-2-yl)methyl, N—(S)-(4-((3-chloro-4-fluorophenyl)carbamoyl)-7-fluoro-2,3-dihydro-1H-inden-1-yl) carbamate]
- EC50 [3]: 0.25 µM

SMILES: O=C1CCC[C@H](COC(=O)N[C@H]2CCc3c(C(=O)Nc4ccc(F)c(Cl)c4)ccc(F)c32)N1 [Compound 198, O—((R)-6-Oxopiperidin-2-yl)methyl, N—((S)-4-((3-chloro-4-fluorophenyl)carbamoyl)-7-fluoro-2,3-dihydro-1H-inden-1-yl) carbamate]
- EC50 [1]: 0.22 µM

SMILES: CCC(=O)N[C@H]1CCc2c(C(=O)Nc3ccc(F)c(Cl)c3)ccc(F)c21 [Compound 158, (S)-N-(3-chloro-4-fluorophenyl)-7-fluoro-1-propionamido-2,3-dihydro-1H-indene-4-carboxamide]
- EC50 [3]: 0.81 µM

SMILES: COC1Cc2c(C(=O)Nc3ccc(F)c(Cl)c3)ccc(F)c2C1NC(=O)OCc1ccccn1 (stereo not drawn) [Compound 247, O-pyridin-2-ylmethyl, N-(4-((3-chloro-4-fluorophenyl)carbamoyl)-7-fluoro-2-methoxy-2,3-dihydro-1H-inden-1-yl)carbamate]
- EC50 [3]: 0.68 µM

SMILES: O=C(N[C@H]1CCc2c(C(=O)Nc3ccc(F)c(Cl)c3)ccc(F)c21)OC[C@@H]1CCCN1 [Compound 69, O—(S)-Pyrrolidin-2-ylmethyl, N—((S)-4-((3-chloro-4-fluorophenyl)carbamoyl)-7-fluoro-2,3-dihydro-1H-inden-1-yl) carbamate Hydrochloride]
- EC50 [1]: 5.1 µM

SMILES: COC(=O)NC1CSc2c(C(=O)Nc3ccc(F)c(F)c3)cccc21 (single isomer, unassigned) [Compound 30, O-Methyl, N-(7-((3,4-difluorophenyl)carbamoyl)-2,3-dihydrobenzo[b]thiophen-3-yl)carbamate]
- EC50 [2]: 1.8 µM

SMILES: Cn1nccc1COC(=O)N[C@H]1CCc2c(C(=O)Nc3ccc(F)c(Cl)c3)ccc(F)c21 [Compound 103, O-(1-Methyl-1H-pyrazol-5-yl)methyl, N—(S)-(4-((3-chloro-4-fluorophenyl)carbamoyl)-7-fluoro-2,3-dihydro-1H-inden-1-yl) carbamate]
- EC50 [3]: 0.1 µM

SMILES: CC(=O)NCCOC(=O)N[C@H]1CCc2c(C(=O)Nc3ccc(F)c(Cl)c3)ccc(F)c21 [Compound 157, O-2-Acetamidoethyl, N—(S)-(4-((3-chloro-4-fluorophenyl)carbamoyl)-7-fluoro-2,3-dihydro-1H-inden-1-yl) carbamate]
- EC50 [1]: 0.26 µM

SMILES: O=C(NC1CSc2c(C(=O)Nc3ccc(F)c(F)c3)ccc(F)c21)OCc1ccccn1 (stereo not drawn) [Compound 64, O-Pyridin-2-ylmethyl, N-(7-((3,4-difluorophenyl)carbamoyl)-4-fluoro-2,3-dihydrobenzo[b]thiophen-3-yl) carbamate]
- EC50 [4]: 0.84 µM

SMILES: COC(=O)NC1c2c(F)ccc(C(=O)Nc3ccc(F)c(F)c3)c2CC1OC (stereo not drawn) [Compound 244, O-methyl, N-(4-((3,4-difluorophenyl)carbamoyl)-7-fluoro-2-methoxy-2,3-dihydro-1H-inden-1-yl) carbamate]
- EC50 [4]: 2 µM

SMILES: CNS(=O)(=O)N[C@H]1CCc2c(C(=O)Nc3ccc(F)c(Cl)c3)ccc(F)c21 [Compound 227, (S)—N-(3-Chloro-4-fluorophenyl)-7-fluoro-1-((N-methylsulfamoyl)amino)-2,3-dihydro-1H-indene-4-carboxamide]
- EC50 [3]: 0.43 µM

SMILES: COC(=O)NC1CCc2c(C(=O)Nc3ccc(F)c(Cl)c3)ccnc21 (stereo not drawn) [Compound 264, O-Methyl, N-(4-((3-chloro-4-fluorophenyl)carbamoyl)-6,7-dihydro-5H-cyclopenta[b]pyridin-7-yl) carbamate]
- EC50 [3]: 0.54 µM

SMILES: CNC(=O)NC1(C)CCc2c(C(=O)Nc3ccc(F)c(Cl)c3)ccc(F)c21 (single isomer, unassigned) [Compound 215, N-(3-Chloro-4-fluorophenyl)-7-fluoro-1-methyl-1-(3-methylureido)-2,3-dihydro-1H-indene-4-carboxamide]
- EC50 [3]: 3.8 µM

SMILES: Cc1cnc(N[C@H]2CCc3c(C(=O)Nc4ccc(F)c(Cl)c4)ccc(F)c32)nc1 [Compound 162, (S)—N-(3-Chloro-4-fluorophenyl)-7-fluoro-1-((5-methylpyrimidin-2-yl)amino)-2,3-dihydro-1H-indene-4-carboxamide]
- EC50 [1]: 0.15 µM

SMILES: CNC(=O)NC1c2c(F)ccc(C(=O)Nc3ccc(F)c(Cl)c3)c2CC1(C)C (single isomer, unassigned) [Compound 134, N-(3-Chloro-4-fluorophenyl)-7-fluoro-2,2-dimethyl-1-(3-methylureido)-2,3-dihydro-1H-indene-4-carboxamide]
- EC50 [2]: 0.36 µM

SMILES: O=C(Nc1ccc(F)c(Cl)c1)c1ccc(F)c2c1CC[C@@H]2Nc1nccc(-c2ccccn2)n1 [Compound 50, (S)—N-(3-Chloro-4-fluorophenyl)-7-fluoro-1-((4-(pyridin-2-yl)pyrimidin-2-yl)amino)-2,3-dihydro-1H-indene-4-carboxamide]
- EC50 [1]: 1 µM

SMILES: CNC(=O)N[C@H]1CCc2c(C(=O)Nc3ccc(F)c(Cl)c3)ccc(F)c21 [Compound 20, (S)—N-(3-Chloro-4-fluorophenyl)-7-fluoro-1-(3-methylureido)-2,3-dihydro-1H-indene-4-carboxamide]
- EC50 [1]: 0.32 µM

SMILES: COc1cc(N[C@H]2CCc3c(C(=O)Nc4ccc(F)c(Cl)c4)ccc(F)c32)ncn1 [Compound 163, (S)—N-(3-Chloro-4-fluorophenyl)-7-fluoro-1-((6-methoxypyrimidin-4-yl)amino)-2,3-dihydro-1H-indene-4-carboxamide]
- EC50 [1]: 0.07 µM

SMILES: O=C(N[C@H]1CCc2c(C(=O)Nc3ccc(F)c(Cl)c3)ccc(F)c21)OCc1ccncn1 [Compound 85, O-Pyrimidin-4-ylmethyl, N—(S)-(4-((3-chloro-4-fluorophenyl)carbamoyl)-7-fluoro-2,3-dihydro-1H-inden-1-yl) carbamate]
- EC50 [3]: 0.58 µM

SMILES: O=C1CC[C@@H](COC(=O)N[C@H]2CCc3c(C(=O)Nc4ccc(F)c(Cl)c4)ccc(F)c32)N1 [Compound 18, O—((S)-5-Oxopyrrolidin-2-yl)methyl, N—((S)-4-((3-chloro-4-fluorophenyl)carbamoyl)-7-fluoro-2,3-dihydro-1H-inden-1-yl) carbamate]
- EC50 [1]: 0.34 µM

SMILES: CCS(=O)(=O)N[C@H]1CCc2c(C(=O)Nc3ccc(F)c(Cl)c3)ccc(F)c21 [Compound 232, (S)—N-(3-Chloro-4-fluorophenyl)-1-(ethylsulfonamido)-7-fluoro-2,3-dihydro-1H-indene-4-carboxamide]
- EC50 [3]: 0.24 µM
